In patent US9187454B2, “Inhibitors of kinases and cancer stem cells, and methods of preparation and use thereof” (Boston Biomedical, Inc., priority 2013, dated 2015) one finds IC50 data, which are given here for 22 compounds.

Holding throughout (type): cell-based
One assay deals with FaDu. The assay is described as follows: Bulk cancer cell viability, CellTiter-Glo, FaDu. The conditions noted are these: viability 72 hours after drug treatment. How it is done: (§1) Cancer cells were plated at 5000 cells per well in black-walled 96 well plates in 100 uL per well of complete media (DMEM, 10% FBS, 1% penicillin/streptomycin). Cells were treated with each of the compounds 24 hours after plating with a dose curve of the indicated compounds in triplicate wells. Cells were harvested 72 hours after drug treatment and viability was determined using CellTiter-Glo assay (Promega) as directed by the manufacturer.

The test system of the next assay is FaDu CSC. The assay is described as follows: Cancer stem cell sphere culture viability, CellTiter-Glo, FaDu CSC. Conditions: CSC cultures, viability 72 hours after drug treatment. How it is done: (§2) Cancer Stem Cell (CSC) cultures were initiated from heterogenous cancer cell lines. Briefly, cancer cell cultures were trypsonized and collected in centrifuge tubes. Cells were then pelleted by centrifugation, media removed, and cells resuspended in phosphate buffered saline (PBS). Cells were then pelleted again, and the process repeated for a total of three PBS washes. Cells were subsequently resuspended in CSC media (DMEMF-12, 1×B27 supplement (Life Technologies), 0.4% BSA, 10 ng/ml EGF, 10 ng/ml FGF). Following resuspension, cells were passed through a 40 uM cell strainer to obtain a single cell suspension. Cells were then plated in 100 mm dishes coated with 0.5% Agar to prevent cell attachment. Cells were then allowed to grow for 5-7 days to allow CSC sphere formation.
(§3) CSC spheres that were a minimum of passage 2 were dissociated with Accutase and filtered through a 40 uM cell strainer before counting to remove any cell clumps. CSCs were then plated at 1000 cells per well in black-walled 96 well plates that have been coated in 0.5% Agar in 100 uL per well of CSC media. CSCs were then allowed to grow for 72 hours. CSC cultures were then treated with a dose curve of the indicated compounds in triplicate wells. CSC cultures were harvested 72 hours after drug treatment and viability determined using CellTiter-Glo assay (Promega) as directed by the manufacturer.

The subject of a further assay is ACHN. The assay is described as follows: Bulk cancer cell viability, CellTiter-Glo, ACHN. Conditions: viability 72 hours after drug treatment. The protocol: as §1
The next assay concerns A549. The assay is described as follows: Bulk cancer cell viability, CellTiter-Glo, A549. The conditions noted are these: Homo sapiens, viability 72 hours after drug treatment. The protocol:
as §1

For a further assay, the system named is A549 CSC. The assay is described as follows: Cancer stem cell sphere culture viability, CellTiter-Glo, A549 CSC. The conditions noted are these: Homo sapiens, CSC cultures, viability 72 hours after drug treatment. The protocol: as §2, §3

Take `CCN(CC)CCNC(=O)c1c(C)[nH]c(/C=C2\C(=O)Nc3cc(-c4csc(-c5ccccc5)n4)ccc32)c1C` [Compound 233]: the IC50 is 5.02 µM in the assay with FaDu (Homo sapiens, FaDu, 72 h) and 0.66 µM in the assay on FaDu CSC (Homo sapiens, FaDu, 72 h).
The compound `Cc1[nH]c(/C=C2\C(=O)Nc3cc(-c4csc(-c5ccccc5)n4)ccc32)c(C)c1C(=O)N1CCN(C)CC1` [Compound 234] showed a half-inhibitory concentration (IC50) with FaDu (Homo sapiens, FaDu, 72 h) of 6.29 µM.
For `CCN(CC)CCNC(=O)c1c(C)[nH]c(/C=C2\C(=O)Nc3c2cccc3-c2csc(-c3ccccc3)n2)c1C` [Compound 235], the IC50 in the assay with FaDu (Homo sapiens, FaDu, 72 h) came out at 5.3 µM; in the assay on FaDu CSC (Homo sapiens, FaDu, 72 h) it was 1.4 µM.
In the same order, the values of `Cc1[nH]c(/C=C2\C(=O)Nc3c2cccc3-c2csc(-c3ccccc3)n2)c(C)c1C(=O)N1CCN(C)CC1` [Compound 236] are 11.3 µM and 2.53 µM.
Turning to `CCN(CC)CCNC(=O)c1c(C)[nH]c(/C=C2\C(=O)Nc3cc(-c4ccc(-c5ccccc5)s4)ccc32)c1C` [Compound 244], the half-inhibitory concentration (IC50) in the assay on FaDu (Homo sapiens, FaDu, 72 h) is 87.6 µM.
In the assay on ACHN (Homo sapiens, ACHN, 72 h), `CCN(CC)CCNC(=O)c1c(C)[nH]c(/C=C2\C(=O)Nc3ccc(-c4ncc(-c5ccccc5)o4)cc32)c1C` [Compound 247] showed a concentration for half-maximal inhibition (IC50) of 63.3 µM.
For the compound `CCN(CC)CCNC(=O)c1c(C)[nH]c(/C=C2\C(=O)Nc3ccc(-c4nnc(-c5ccccc5)s4)cc32)c1C` [Compound 250], the 50% inhibitory concentration (IC50) is 83.9 µM in the assay with ACHN and 14.1 µM with FaDu (Homo sapiens, FaDu, 72 h).
In the case of `CCN(CC)CCNC(=O)c1c(C)[nH]c(/C=C2\C(=O)Nc3ccc(-c4csc(-c5ccccc5)n4)nc32)c1C` [Compound 261], the IC50 with ACHN (Homo sapiens, ACHN, 72 h) is 1.75 µM; with FaDu (Homo sapiens, FaDu, 72 h), 1.51 µM; with A549, 1.12 µM; in the assay with FaDu CSC (Homo sapiens, FaDu, 72 h), 0.65 µM.
Take `Cc1[nH]c(/C=C2\C(=O)Nc3ccc(-c4csc(-c5ccccc5)n4)nc32)c(C)c1C(=O)NCCN1CCCC1` [Compound 262]: the IC50 in the assay on ACHN (Homo sapiens, ACHN, 72 h) came out at 2.83 µM; with A549 CSC, 2.01 µM; in the assay with FaDu (Homo sapiens, FaDu, 72 h) it was 3.62 µM; in the assay with A549, 3.15 µM; with FaDu CSC (Homo sapiens, FaDu, 72 h), 1.1 µM.
Regarding `CCN(CC)CCNC(=O)c1ccc(/C=C2\C(=O)Nc3ccc(-c4csc(-c5ccccc5)n4)cc32)[nH]c1=O` [Compound 263], the concentration for half-maximal inhibition (IC50) in the assay with FaDu (Homo sapiens, FaDu, 72 h) worked out at 2.41 µM; with FaDu CSC (Homo sapiens, FaDu, 72 h) it was 8.16 µM.
Consider `CN1CCN(C(=O)c2ccc(/C=C3\C(=O)Nc4ccc(-c5csc(-c6ccccc6)n5)cc43)[nH]c2=O)CC1` [Compound 264], for which the IC50 with FaDu (Homo sapiens, FaDu, 72 h) turned out to be 99.8 µM.
On the same count and under the same terms, to `O=C1Nc2ccc(-c3csc(-c4ccccc4)n3)cc2/C1=C/c1ccc(C(=O)NCCN2CCOCC2)c(=O)[nH]1` [Compound 265] belongs 62.7 µM; to `Cc1[nH]c(/C=C2\C(=O)Nc3cc(-c4csc(-c5ccccc5)n4)ccc32)c(C)c1C(=O)N1CCOCC1` [Compound 268], 64.8 µM.
On the same count and under the same terms, the result for `CCN(CC)CCNC(=O)c1c(C)[nH]c(/C=C2\C(=O)Nc3ccc(C4CCN(C5CCN(C(C)=O)CC5)CC4)cc32)c1C` [Compound 272] reads 22.3 µM.
With `CCN(CC)CCNC(=O)c1c(C)[nH]c(/C=C2\C(=O)Nc3ccc(-c4cnn(C5CCOCC5)c4)cc32)c1C` [Compound 273], the half-inhibitory concentration (IC50) stood at 6.15 µM in the assay on FaDu (Homo sapiens, FaDu, 72 h); 27.3 µM with A549; 9.05 µM in the assay on FaDu CSC (Homo sapiens, FaDu, 72 h).
As for `CCN(CC)CCNC(=O)c1c(C)[nH]c(/C=C2\C(=O)Nc3ccc(C4=CS/C(=C\c5ccccc5)N4C)cc32)c1C` [Compound 283], the IC50 with FaDu (Homo sapiens, FaDu, 72 h) was 5.35 µM; with FaDu CSC (Homo sapiens, FaDu, 72 h), 2.17 µM.
For the compound `CCN(CC)CCNC(=O)c1c(C)[nH]c(/C=C2\C(=O)Nc3ccc(-c4cn(-c5ccccc5)nc4C)cc32)c1C` [Compound 287], the values for the IC50 in the assay with FaDu and in the assay with FaDu CSC were 5.79 µM and 1.31 µM, respectively.
On to `CCN(CC)CCNC(=O)c1c(C)[nH]c(/C=C2\C(=O)Nc3ccc(-c4ccc(-c5cccnc5)s4)cc32)c1C` [Compound 298], for which the concentration for half-maximal inhibition (IC50) in the assay with FaDu (Homo sapiens, FaDu, 72 h) is 14.3 µM; with FaDu CSC (Homo sapiens, FaDu, 72 h) it was 40.8 µM.
Consider `CCN(CC)CCNC(=O)c1c(C)[nH]c(/C=C2\C(=O)Nc3ccc(-c4nnc(-c5ccccc5)s4)cc32)c1C` [Compound 303], for which the half-maximal inhibitory concentration (IC50) with ACHN amounted to 5.67 µM; in the assay on FaDu, 7.98 µM; in the assay on FaDu CSC, 12.6 µM.
`Cc1[nH]c(/C=C2\C(=O)Nc3ccc(-c4csc(-c5ccncc5)n4)cc32)c(C)c1CCC(=O)O` [Compound 348] showed an IC50 in the assay on FaDu (Homo sapiens, FaDu, 72 h) of 64.4 µM.
Same read-out and setting: to `O=C1Nc2ccc(-c3csc(-c4ccncc4)n3)cc2/C1=C/c1cc2ccccc2[nH]1` [Compound 352] belongs 67.8 µM.
Same read-out and setting: the result for `Cc1cc(C(=O)NCCO)[nH]c1/C=C1\C(=O)Nc2ccc(-c3csc(-c4ccccc4)n3)cc21` [Compound 370] reads 56 µM.
